In publication PMC9387934, “Randomized single oral dose phase 1 study of safety, tolerability, and pharmacokinetics of Iminosugar UV-4 Hydrochloride (UV-4B) in healthy subjects” (PLoS Neglected Tropical Diseases, 2022):
Structures can show the parent of a compound that is named as a salt. Where two headings read alike, the source gives them in different places.

Tests used:
[1] = tested on: CYP2A6; parameters: method as in Investigator’s Brochure (IB); conditions: in vitro; ref Investigator’s Brochure (IB); cited from earlier work
[2] = Prediction of human clearance and exposure by scaling of IV PK data from mouse, rat and dog against body weight
Protocol: Pharmacokinetic parameters seen in the Phase 1a study were compared to exposure and clearance data collected in animal studies to determine if consistent parameters are observed across species (detailed ADME and PK assessment in non-human species will be described in a manuscript in preparation). Nonclinical PK and excretion studies of UV-4 as the hydrochloride salt and UV-4 free base were conducted using the oral and IV routes of administration as single doses in mice, rats, ferrets, and dogs. […] Absorption was rapid following oral administration in each nonclinical species, in alignment with the median Tmax of 0.5 to 1 hour across all dose groups in the Phase 1a study.

[3] = tested on: CYP2C19; parameters: method as in Investigator’s Brochure (IB); conditions: in vitro; ref Investigator’s Brochure (IB); cited from earlier work
[4] = human, mouse, rat, and dog liver microsomes and hepatocytes; ref Investigator’s Brochure (IB); cited from earlier work
[5] = in vivo; parameters: species or system AG129 mice; conditions: Crl:CD1(ICR), dose-adjusted PK data from the 25 mg/kg/day dose of the mouse 14-day study, read-out: Cmax at which relevant pharmacological activity is expected
Protocol: UV-4B was evaluated in four in vitro genetic toxicology assays (two Ames bacterial reverse mutation, mouse lymphoma assay, and chromosomal aberration in cultured human lymphocytes), and in an in vivo (mouse bone marrow micronucleus). UV-4B was not found to be mutagenic or clastogenic in any of these assays
2.2 Rationale for Dose Selection
This is a single-ascending dose study in which UV-4B will be administered for the first time in humans. The study will evaluate the safety, tolerability, and PK of increasing oral doses of […]
The results from this study will form the basis for the selection of doses of UV-4B to be used in future studies in healthy subjects and in patients diagnosed with uncomplicated DENV infection.
In the studies summarized below, the dose stated refers to the free-base used in vitro or administered during in vivo experiments.
The proposed doses for Cohorts 1 through 8 will range from 3 mg to 1000 mg of UV-4B (dose stated refers to the free base; see Table 2). […]
UV-4B, administered orally TID (intragastric via oral gavage) for a total number of 7 days (first dose administered 1 hour prior to infection) was effective in promoting survival of AG129 mice challenged with DENV. Of the doses evaluated (2.5, 5, 10, 20, and 40 mg/kg TID), the minimal effective dose (survival of 90% to 100%) was determined to be 10 mg/kg TID (UV4-LIA-0002). […]

[6] = parameters: method as in Investigator’s Brochure (IB); conditions: in vivo; ref Investigator’s Brochure (IB); cited from earlier work
[7] = tested on: human ether-a-go-go-related gene potassium channel; conditions: at UV-4 concentration more than 20-fold higher than expected at the planned ceiling dose in humans; ref Investigator’s Brochure (IB); cited from earlier work
[8] = tested on: cultured human lymphocytes; conditions: in vitro; ref Investigator’s Brochure (IB); cited from earlier work
[9] = compared with UV-4; cited from earlier work
[10] = cited from earlier work
[11] = Reproductive toxicity upper limit study in rabbits, 13 days; assay type: in vivo, rabbit; conditions: 50 mg/kg/day
Protocol: 7. Reproductive toxicity:
UV-4B has been evaluated for developmental and reproductive toxicity in fertility and early embryonic development in rats, embryo-fetal development in rats and rabbits, and pre- and postnatal development in rats. In male and female rats given UV-4B at 8, 20, and 50 mg/kg/day before mating and continuing through Gestation Day 13, a […]
observed at 50 mg/kg/day. […]
count but following a 21-week treatment-free period there was complete recovery in pregnancy and fertility indices However, decrease in testicular weight, sperm motility […]
identify the upper limit of reproductive toxicity, a dose of 50 mg/kg/day for 12 […]
In a study designed to identify the upper limit of reproductive toxicity, a dose of 50 […]
rabbit offspring. The rat and rabbit doses are equivalent to 486 and 966 mg/day, […]
In summary, findings that have been identified in the UV-4B toxicology studies so far include effects on the GI tract (including ulcers/erosions), lymphocytes and lymphoid tissue, reduction in PLT count, and increases in transaminases (AST>ALT). Findings were generally consistent across mouse, dog, and rat, apart from the isolated finding of swollen paws/legs and perioral appearance and red skin which was seen only in the rat. […]

[12] = mice, Day 14, at NOAEL 300 mg/kg/day, ref Investigator’s Brochure (IB)
[13] = mouse, 25 TID mg/kg, Day 28 (Recovery)
[14] = mouse, 25 TID mg/kg, dosing phase (Day 14)
[15] = mouse, 100 TID mg/kg (NOAEL), Day 28 (Recovery)

For `COCCCCCCCCCN1C[C@H](O)[C@@H](O)[C@H](O)[C@H]1CO` [UV-4, N-(9’-methoxynonyl)-1-deoxynojirimycin], the “Direct inhibition of CYP2A6” value [1] is listed as “No clinically relevant direct inhibition”, the clearance ([2]; human, simple scaling of systemic clearance against body weight, IV PK data of mouse, rat and dog, read-out: Human systemic clearance, estimated (converted)) is listed as 560 mL/min and the “Total exposure (AUC(0-inf)), predicted” value ([2]; starting dose of 3 mg, from scaled clearance) is listed as 89 ng·h/mL. For the same compound, the “Direct inhibition of CYP2C19” value [3] was “No clinically relevant direct inhibition”, the Metabolic stability [4] was “metabolically stable” and the Cmax [5] was 4000 to 8000 ng/mL.

For `COCCCCCCCCCN1C[C@H](O)[C@@H](O)[C@H](O)[C@H]1CO` [UV-4B, N-(9’-methoxynonyl)-1-deoxynojirimycin hydrochloride], the “Mouse bone marrow micronucleus” value [6] is given as “not found to be mutagenic or clastogenic”, the “Inhibition of hERG potassium channel” value [7] is given as “did not inhibit” and the “Clastogenicity, chromosomal aberration in cultured human lymphocytes” value [8] is given as “not found to be mutagenic or clastogenic”. The “Solubility of the hydrochloride salt” value [9] was “higher solubility”, the NOAEL ([10]; mice, 14 days of TID administration, ref Investigator’s Brochure (IB)) was 300 mg/kg/day and the “No observed effect level (NOEL)” value ([10]; mice, 14 days, a NOEL was not present at this dose level, ref Investigator’s Brochure (IB)) was < 25 mg/kg/dose. For the same compound, the “AUC(0-8)” value [10, 12] was 54,435 ng•h/mL, the “Mean Cmax” value [10, 12] was 32,617 ng/mL and the “Decreased thymus weight (M)” value [10, 13] was “−”. For the same compound, the “Follicular epithelium vacuolation in thyroid” value [10, 13] was “−”, the “Lymphoid depletion of the thymus (M)” value [10, 13] was “−” and the “Decreased thymus weight (M)” value [10, 14] was “↓ (M)”. The “Lymphoid depletion of the thymus (M)” value [10, 14] was “P (M)”, the “Decrease in red cell mass (RBC Count, HGB, and HCT)” value [10, 15] was “−” and the “Decrease in thymus weight” value [10, 15] was “−”. For the same compound, the “Follicular epithelium vacuolation in thyroid” value [10, 15] was “−”, the “Lymphoid depletion in thymus” value [10, 15] was “−” and the “Neutrophilic infiltration and erosion/ulcer rectum (F)” value [10, 15] was “−”. For the same compound, the “Human equivalent of the rabbit dose” value [11] was 966 mg/day.
